Source: ChEMBL document CHEMBL5715945 (Cancer Biol Ther, 2010)
Activity calls are given as the source filed them. The calls are words filed in the database; no cut-off is given here.

Legend:
[1] = molecular target: Mast/stem cell growth factor receptor Kit (Homo sapiens) (UniProt P10721); test: Inhibition of c-kit (unknown origin) at 1 uM relative to control; values are per cent of control
4T1 [2] = test: Induction of cell cycle arrest in mouse 4T1 cells assessed as accumulation at sub-diploid cells at 1 uM measured after 72 hrs by PI staining based flow cytometry analysis; assay type: functional
[3] = molecular target: Tyrosine-protein kinase ABL1 (Homo sapiens) (UniProt P00519); test: Inhibition of Abl (unknown origin) at 1 uM relative to control; values are per cent of control
[4] = molecular target: ALK tyrosine kinase receptor (Homo sapiens) (UniProt Q9UM73); test: Inhibition of ALK (unknown origin) at 1 uM relative to control; values are per cent of control
[5] = molecular target: RAF proto-oncogene serine/threonine-protein kinase (Homo sapiens) (UniProt P04049); test: Inhibition of c-RAF (unknown origin) at 1 uM relative to control; values are per cent of control
[6] = molecular target: Focal adhesion kinase 1 (Mus musculus) (UniProt P34152); test: Inhibition of FAK phosphorylation at Tyr397 residue in mouse ID8 cells harbouring mCherry red fluorescent protein at 0.1 to 1 uM incubated for 1 hr by immunoblotting analysis; assay type: cell-based; details: dose 0.1-1 µM
[7] = molecular target: Tyrosine-protein kinase JAK2 (Homo sapiens) (UniProt O60674); test: Inhibition of JAK2 (unknown origin) at 0.1 uM relative to control; values are per cent of control
[8] = molecular target: Tyrosine-protein kinase Lck (Homo sapiens) (UniProt P06239); test: Inhibition of Lck (unknown origin) at 1 uM relative to control; values are per cent of control
[9] = molecular target: Death-associated protein kinase 1 (Homo sapiens) (UniProt P53355); test: Inhibition of DAPK1 (unknown origin) at 1 uM relative to control; values are per cent of control
[10] = molecular target: Platelet-derived growth factor receptor beta (Homo sapiens) (UniProt P09619); test: Inhibition of PDGFRb (unknown origin) at 0.1 uM relative to control; values are per cent of control
[11] = molecular target: cAMP-dependent protein kinase (PKA) (Homo sapiens) (UniProt P22694+P17612+P22612); test: Inhibition of PKA (unknown origin) at 1 uM relative to control; values are per cent of control
4T1 [12] = test: Induction of apoptosis in mouse 4T1 suspended cells assessed as increase in cleaved caspase 3 expression at 0.4 uM incubated for 24 hrs by immunoblotting analysis; assay type: functional, cell-based
4T1 [13] = test: Antitumor activity against mouse 4T1 cells harbouring mCherry red fluorescent protein implanted in BALB/c mouse assessed as increase in apoptosis in tumor at 30 to 100 mg/kg, sc bid measured after 5 days by TUNEL staining based microscopic analysis; assay type: functional, organism-based; details: dose 30-100 mg/kg, time 5.0 day
[14] = molecular target: Tyrosine-protein kinase Fyn (Homo sapiens) (UniProt P06241); test: Inhibition of Fyn (unknown origin) at 0.1 uM relative to control; values are per cent of control
4T1 [15] = test: Induction of cell cycle arrest in mouse 4T1 adherent cells assessed as accumulation at G2/M phase at 1 uM measured after 72 hrs by PI staining based flow cytometry analysis (reference value: 5.6%); assay type: functional
[16] = molecular target: Focal adhesion kinase 1 (Mus musculus) (UniProt P34152); test: Inhibition of FAK phosphorylation at Tyr397 residue in mouse 4T1 cells harbouring mCherry red fluorescent protein at 0.1 to 1 uM incubated for 60 mins followed by compound washout measured after 60 mins by immunoblotting analysis; assay type: cell-based; details: dose 0.1-1 µM
4T1 [17] = test: Antitumor activity against mouse 4T1 cells harbouring mCherry red fluorescent protein implanted in BALB/c mouse assessed as increase in cleaved caspase-3 in tumor at 30 to 100 mg/kg, sc bid measured after 5 days by Hoechst staining based microscopic analysis; assay type: functional, organism-based; details: dose 30-100 mg/kg, time 5.0 day
[18] = molecular target: Insulin-like growth factor 1 receptor (Homo sapiens) (UniProt P08069); test: Inhibition of IGF-1R (unknown origin) at 1 uM relative to control; values are per cent of control

Chain of Focal adhesion kinase 1 (Mus musculus) (P34152 whole entry): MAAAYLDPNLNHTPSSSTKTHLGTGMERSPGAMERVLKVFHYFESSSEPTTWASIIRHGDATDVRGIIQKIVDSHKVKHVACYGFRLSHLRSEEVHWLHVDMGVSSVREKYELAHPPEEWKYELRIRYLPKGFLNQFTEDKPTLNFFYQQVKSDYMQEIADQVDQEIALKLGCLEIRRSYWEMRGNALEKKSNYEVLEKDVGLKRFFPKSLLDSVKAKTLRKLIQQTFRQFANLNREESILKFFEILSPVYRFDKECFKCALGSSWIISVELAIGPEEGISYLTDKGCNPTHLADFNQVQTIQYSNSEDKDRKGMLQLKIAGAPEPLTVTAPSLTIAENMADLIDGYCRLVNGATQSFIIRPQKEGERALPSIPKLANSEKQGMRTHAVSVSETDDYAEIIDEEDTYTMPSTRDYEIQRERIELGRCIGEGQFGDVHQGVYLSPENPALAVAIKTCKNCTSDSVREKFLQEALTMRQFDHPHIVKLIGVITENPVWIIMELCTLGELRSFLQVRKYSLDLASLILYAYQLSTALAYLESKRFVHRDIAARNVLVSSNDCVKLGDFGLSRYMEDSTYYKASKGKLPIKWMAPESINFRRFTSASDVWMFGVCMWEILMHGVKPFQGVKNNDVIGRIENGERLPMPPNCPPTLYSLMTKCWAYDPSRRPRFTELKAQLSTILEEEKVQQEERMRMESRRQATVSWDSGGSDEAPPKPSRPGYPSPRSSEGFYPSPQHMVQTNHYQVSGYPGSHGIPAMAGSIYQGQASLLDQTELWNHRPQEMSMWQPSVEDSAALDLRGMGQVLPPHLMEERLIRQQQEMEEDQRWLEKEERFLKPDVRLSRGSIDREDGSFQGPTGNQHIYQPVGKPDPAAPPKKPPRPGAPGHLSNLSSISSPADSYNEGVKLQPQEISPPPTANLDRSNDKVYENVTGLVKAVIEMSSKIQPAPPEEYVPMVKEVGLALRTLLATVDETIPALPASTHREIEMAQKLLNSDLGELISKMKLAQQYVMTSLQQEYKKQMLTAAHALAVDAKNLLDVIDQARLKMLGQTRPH
Chain of Platelet-derived growth factor receptor beta (Homo sapiens) (P09619 whole entry): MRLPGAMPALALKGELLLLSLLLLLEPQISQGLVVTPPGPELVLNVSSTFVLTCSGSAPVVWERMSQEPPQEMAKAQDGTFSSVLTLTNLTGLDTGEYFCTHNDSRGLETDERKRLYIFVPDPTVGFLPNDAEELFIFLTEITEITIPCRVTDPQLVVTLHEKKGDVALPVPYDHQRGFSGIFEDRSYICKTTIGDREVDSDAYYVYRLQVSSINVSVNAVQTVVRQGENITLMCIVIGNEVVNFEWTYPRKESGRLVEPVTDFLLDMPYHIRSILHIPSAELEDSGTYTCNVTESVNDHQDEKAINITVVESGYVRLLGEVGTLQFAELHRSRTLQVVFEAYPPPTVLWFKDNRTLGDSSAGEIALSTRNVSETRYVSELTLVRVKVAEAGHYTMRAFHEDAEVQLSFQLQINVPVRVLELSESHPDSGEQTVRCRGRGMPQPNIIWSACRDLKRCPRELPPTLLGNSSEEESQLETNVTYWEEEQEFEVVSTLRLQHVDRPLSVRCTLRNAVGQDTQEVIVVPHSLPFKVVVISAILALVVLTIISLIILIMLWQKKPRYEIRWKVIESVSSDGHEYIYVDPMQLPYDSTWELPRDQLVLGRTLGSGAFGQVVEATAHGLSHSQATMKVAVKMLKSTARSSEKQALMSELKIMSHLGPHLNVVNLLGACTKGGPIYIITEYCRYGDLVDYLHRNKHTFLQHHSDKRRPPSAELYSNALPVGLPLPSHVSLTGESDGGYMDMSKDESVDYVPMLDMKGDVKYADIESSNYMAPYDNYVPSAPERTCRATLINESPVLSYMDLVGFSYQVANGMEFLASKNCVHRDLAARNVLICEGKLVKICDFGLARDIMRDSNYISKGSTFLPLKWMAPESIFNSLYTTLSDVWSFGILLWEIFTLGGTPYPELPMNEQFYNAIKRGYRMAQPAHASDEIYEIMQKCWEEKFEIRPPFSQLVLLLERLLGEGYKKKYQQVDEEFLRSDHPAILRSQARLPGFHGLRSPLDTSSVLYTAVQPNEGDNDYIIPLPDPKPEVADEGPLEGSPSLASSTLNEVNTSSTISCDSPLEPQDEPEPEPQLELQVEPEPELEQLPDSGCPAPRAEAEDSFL
Chain of Tyrosine-protein kinase JAK2 (Homo sapiens) (O60674 whole entry): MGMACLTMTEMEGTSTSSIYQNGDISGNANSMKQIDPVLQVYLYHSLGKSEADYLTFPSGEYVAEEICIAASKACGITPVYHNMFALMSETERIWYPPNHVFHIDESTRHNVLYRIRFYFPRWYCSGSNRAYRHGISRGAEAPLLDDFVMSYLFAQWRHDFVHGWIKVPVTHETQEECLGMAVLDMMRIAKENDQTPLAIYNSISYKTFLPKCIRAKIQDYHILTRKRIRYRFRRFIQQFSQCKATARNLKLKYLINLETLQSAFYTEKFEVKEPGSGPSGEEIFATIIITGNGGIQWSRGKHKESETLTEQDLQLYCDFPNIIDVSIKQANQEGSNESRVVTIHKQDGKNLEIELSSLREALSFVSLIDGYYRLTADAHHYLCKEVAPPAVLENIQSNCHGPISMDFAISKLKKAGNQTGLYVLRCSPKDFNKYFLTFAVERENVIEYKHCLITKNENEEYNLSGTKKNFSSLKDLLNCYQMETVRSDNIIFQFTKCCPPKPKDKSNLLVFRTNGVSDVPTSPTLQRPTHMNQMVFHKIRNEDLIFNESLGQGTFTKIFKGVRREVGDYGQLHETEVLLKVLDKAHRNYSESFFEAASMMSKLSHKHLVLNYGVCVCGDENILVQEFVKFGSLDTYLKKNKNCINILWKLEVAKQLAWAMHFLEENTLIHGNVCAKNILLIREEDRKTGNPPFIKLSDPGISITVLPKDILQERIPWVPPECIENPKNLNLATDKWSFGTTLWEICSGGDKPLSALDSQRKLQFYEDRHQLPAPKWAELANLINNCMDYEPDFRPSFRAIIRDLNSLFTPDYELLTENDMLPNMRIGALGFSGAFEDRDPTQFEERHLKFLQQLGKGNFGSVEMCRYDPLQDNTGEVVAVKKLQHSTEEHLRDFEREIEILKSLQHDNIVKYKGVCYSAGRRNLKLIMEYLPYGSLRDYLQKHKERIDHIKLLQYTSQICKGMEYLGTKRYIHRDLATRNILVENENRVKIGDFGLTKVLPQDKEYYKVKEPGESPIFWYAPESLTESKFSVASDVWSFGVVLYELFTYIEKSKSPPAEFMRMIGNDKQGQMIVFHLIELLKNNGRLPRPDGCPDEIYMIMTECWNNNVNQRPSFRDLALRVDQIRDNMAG
Chain of Death-associated protein kinase 1 (Homo sapiens) (P53355 whole entry, looked up): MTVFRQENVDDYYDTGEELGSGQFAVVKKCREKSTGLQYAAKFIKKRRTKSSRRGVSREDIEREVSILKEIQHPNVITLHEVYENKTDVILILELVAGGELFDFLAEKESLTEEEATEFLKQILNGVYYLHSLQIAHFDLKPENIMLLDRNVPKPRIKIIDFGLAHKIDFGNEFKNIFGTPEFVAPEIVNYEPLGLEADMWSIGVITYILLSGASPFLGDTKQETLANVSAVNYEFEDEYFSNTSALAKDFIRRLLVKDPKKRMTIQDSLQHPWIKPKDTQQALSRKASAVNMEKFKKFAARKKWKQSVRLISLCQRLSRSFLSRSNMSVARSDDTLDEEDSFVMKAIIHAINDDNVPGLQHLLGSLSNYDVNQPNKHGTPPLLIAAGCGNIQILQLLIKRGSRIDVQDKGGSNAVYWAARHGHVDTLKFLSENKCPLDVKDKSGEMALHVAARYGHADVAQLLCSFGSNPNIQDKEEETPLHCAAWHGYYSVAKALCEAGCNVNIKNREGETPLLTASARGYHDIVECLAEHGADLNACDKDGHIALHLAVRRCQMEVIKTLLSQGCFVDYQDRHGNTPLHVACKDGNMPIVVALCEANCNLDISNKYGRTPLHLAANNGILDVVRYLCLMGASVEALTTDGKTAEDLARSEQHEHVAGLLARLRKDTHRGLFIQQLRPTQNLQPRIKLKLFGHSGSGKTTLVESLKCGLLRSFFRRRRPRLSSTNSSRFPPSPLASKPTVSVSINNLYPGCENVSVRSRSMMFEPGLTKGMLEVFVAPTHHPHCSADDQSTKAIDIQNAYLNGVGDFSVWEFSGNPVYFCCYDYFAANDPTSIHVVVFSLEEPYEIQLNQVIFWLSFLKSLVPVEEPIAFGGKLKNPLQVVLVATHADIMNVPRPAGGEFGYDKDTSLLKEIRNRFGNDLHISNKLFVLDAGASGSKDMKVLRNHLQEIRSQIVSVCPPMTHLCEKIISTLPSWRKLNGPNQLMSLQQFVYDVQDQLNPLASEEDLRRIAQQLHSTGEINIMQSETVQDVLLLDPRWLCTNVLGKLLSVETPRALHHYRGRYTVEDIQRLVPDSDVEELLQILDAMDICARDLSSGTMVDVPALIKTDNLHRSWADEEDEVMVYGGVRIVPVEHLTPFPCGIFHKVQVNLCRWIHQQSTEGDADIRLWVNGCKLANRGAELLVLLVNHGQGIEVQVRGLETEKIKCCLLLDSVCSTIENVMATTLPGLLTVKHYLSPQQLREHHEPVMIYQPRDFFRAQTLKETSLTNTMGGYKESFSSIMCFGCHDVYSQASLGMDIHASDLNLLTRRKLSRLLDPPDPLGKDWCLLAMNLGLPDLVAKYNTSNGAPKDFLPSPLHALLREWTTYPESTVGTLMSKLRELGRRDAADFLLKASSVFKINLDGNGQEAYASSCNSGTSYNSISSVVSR

## CNC(=O)c1ccccc1Nc1cc(Nc2ccc(N3CCOCC3)cc2OC)ncc1C(F)(F)F [VS-4718]
[1]
  residual activity: 122%
4T1 [2]
  Activity: Active
[3]
  residual activity: 112%
[4]
  residual activity: 127%
[5]
  residual activity: 150%
[6]
  inhibition: Active
[7]
  residual activity: 116%
[8]
  residual activity: 32%
[9]
  residual activity: 97%
[10]
  residual activity: 98%
[11]
  residual activity: 111%
4T1 [12]
  Activity: Active
4T1 [13]
  Activity: Active
[14]
  residual activity: 99%
4T1 [15]
  Activity: 5.6%
[16]
  inhibition: inactive
4T1 [17]
  Activity: Active
[18]
  residual activity: 110%
